Measurements reported in patent US5100892A, “Dihydropyridine vasodilator agents” (Glaxo Inc., priority 1990, dated 1992).

System: Spontaneously Hypertensive Rats
Test: Spontaneously Hypertensive Rat (SHR) Test, hemodynamics in anesthetized rats
Format: in vivo, Spontaneously Hypertensive Rat (Sprague Dawley)
Conditions: for HR (Heart Rate: change from basal) / LVPT (time for Left Ventricular Pressure to decay from peak to 50%, % of basal) / MBP (Mean Blood Pressure: change from basal) / RT64 (change in time from maximal relaxation, % of basal) / dP/dT40 (change in rate of systolic pressure increase of left ventricle measured at 40 mm Hg from basal): anesthetized SHR
Method: Male Retired Breeder Spontaneously Hypertensive Rats (SHR) (Sprague Dawley, 250-350 g) are anesthetized by i.p. injection of Sodium Thiopental 50 mg/kg. A catheter is inserted into the duodenum for maintenance of anesthesia throughout the experiment. A tube is inserted through a lateral incision in the trachea. The left carotid artery is exposed and a Millar SPR-249 (2-F) pressure probe is inserted and passed into the left ventricle of the heart. Left ventricular pressure (LVP), the first differential of the LVP (+dP/dT,-dP/dT), the left ventricular end diastolic pressure (LVEDP) and the differential of the increase in LVP measured at a constant pressure of 40 mm Hg (dP/dT40) are measured via this probe. In addition to these parameters, two indices of myocardial diastolic relaxation are measured namely the RT64 (time in msec from the peak derivative of maximal relaxation to 64% of that value) and the Left Ventricular Pressure Time Constant (LVPT), the half-time for decay of the LVP from peak pressure to 50% of that pressure. […] Results also are shown graphically on a Gould RS3800 Recorder. A saline filled cannula is passed into the femoral vein for infusion of drugs and one is placed into the femoral artery for measurement and recording or arterial blood pressure (Statham P23Db pressure transducer). From this signal the diastolic, systolic and mean blood pressure are derived as well as the heart rate. After surgery, the preparation is left to stabilize for 45 minutes after which compounds, dissolved in polyethylene glycol, are slowly infused with a Sage Instruments Infusion pump into the femoral vein. […] After completion of the last infusion, hemodynamic parameters are observed over 30 min and then a standard dose of 3.0 mg/kg milrinone is infused (over 5 min) to test preparation responsiveness. In the SHR, the following results were obtained for several known cardiovascular agents and for the compound of Examples 10,11,15 and 16.

Row | SMILES | HR (Heart Rate: change from basal) (10 mg/kg i.v.) [%] | LVPT (time for Left Ventricular Pressure to decay from peak to 50%, % of basal) (10 mg/kg i.v.) [%] | MBP (Mean Blood Pressure: change from basal) (10 mg/kg i.v.) [%] | RT64 (change in time from maximal relaxation, % of basal) (10 mg/kg i.v.) [%] | dP/dT40 (change in rate of systolic pressure increase of left ventricle measured at 40 mm Hg from basal) (10 mg/kg i.v.) [%] | effect on blood pressure (in words) (10 mg/kg i.v., SHR) | effect on dP/dT40 (in words) (10 mg/kg i.v., SHR) | effect on heart rate (in words) (10 mg/kg i.v., SHR) | effect on myocardial relaxation time constants (in words) (10 mg/kg i.v., SHR) | also measured
1 | COC(=O)C1=C(C)NC(C)=C(C(=O)OCCNC(=O)COc2ccc(-c3cc(C#N)c(=O)[nH]c3C)cc2)C1c1cccc(Cl)c1Cl (racemic) [Example 11, (±)-2,6-dimethyl-3-carbomethoxy-4-(2,3-dichlorophenvl)-5-{4-[1,2-dihydro-2-oxo-3-cyano-6-methyl-5(1H)-pyridyl]phenoxymethylenecarboxamindoethyloxycarbonyl}-1,4-dihydropyridine] | 0 | -31 | -45.8 | -34.5 | -9 | – | – | – | – | HR (Heart Rate: change from basal) (0.3 mg/kg i.v.): 2.8%; LVPT (time for Left Ventricular Pressure to decay from peak to 50%, % of basal) (0.3 mg/kg i.v.): -14.4%; MBP (Mean Blood Pressure: change from basal) (0.3 mg/kg i.v.): -12.5%; RT64 (change in time from maximal relaxation, % of basal) (0.3 mg/kg i.v.): -15.7%; dP/dT40 (change in rate of systolic pressure increase of left ventricle measured at 40 mm Hg from basal) (0.3 mg/kg i.v.): 4.5%; HR (Heart Rate: change from basal) (1.0 mg/kg i.v.): 1.7%; LVPT (time for Left Ventricular Pressure to decay from peak to 50%, % of basal) (1.0 mg/kg i.v.): -22.4%; MBP (Mean Blood Pressure: change from basal) (1.0 mg/kg i.v.): -16.3%; RT64 (change in time from maximal relaxation, % of basal) (1.0 mg/kg i.v.): -22.8%; dP/dT40 (change in rate of systolic pressure increase of left ventricle measured at 40 mm Hg from basal) (1.0 mg/kg i.v.): 6.9%; HR (Heart Rate: change from basal) (3.0 mg/kg i.v.): -0.5%; LVPT (time for Left Ventricular Pressure to decay from peak to 50%, % of basal) (3.0 mg/kg i.v.): -34%; MBP (Mean Blood Pressure: change from basal) (3.0 mg/kg i.v.): -36.7%; RT64 (change in time from maximal relaxation, % of basal) (3.0 mg/kg i.v.): -26%; dP/dT40 (change in rate of systolic pressure increase of left ventricle measured at 40 mm Hg from basal) (3.0 mg/kg i.v.): 3.5%; hemodynamic profile compared with Example 10 (in words) (i.v., SHR, compared with Example 10): A similar profile was observed
2 | COC(=O)C1=C(C)NC(C)=C(C(=O)OCCNC(=O)COc2ccc(-c3cc(C#N)c(=O)[nH]c3C)cc2)C1c1cccc([N+](=O)[O-])c1 (single isomer, unassigned; (+)) [Example 15, (+)-2,6-dimethyl-3-carbomethoxy-4-(3-nitrophenyl)-5-{4-[1,2-dihydro-2-oxo-3-cyano-b 6-methyl-5(1H)-pyridyl]phenoxymethylenecarboxamidoethyloxycarbonyl}-1,4-dihydropyridine] | -1.9 | -4.2 | -39.8 | 1.6 | 11.9 | hypotension | slight increase in dP/dT40 | no change in heart rate | little effect | –
3 | COC(=O)C1=C(C)NC(C)=C(C(=O)OCCNC(=O)COc2ccc(-c3cc(C#N)c(=O)[nH]c3C)cc2)C1c1cccc([N+](=O)[O-])c1 (single isomer, unassigned; (-)) [Example 16, (-)-2,6-dimethyl-3-carbomethoxy-4-(3-nitrophenyl)-5-{4-[1,2-dihydro-2-oxo-3-cyano-6-methyl-5(1H)-pyridyl]phenoxymethylenecarboxamidoethyloxycarbonyl}-1,4-dihydropyridine] | -1.5 | -18 | -34.9 | -17.6 | 5 | hypotension | slight increase in dP/dT40 | no change in heart rate | marked reduction in myocardial relaxation time constants | –
